{
  "source": "ChEMBL document CHEMBL1130408",
  "about": "“Repromicin derivatives with potent antibacterial activity against Pasteurella multocida” (1997)",
  "format_in_all_cases": "functional",
  "key": {"Mus musculus [1]": {"species": "Mus musculus", "assay": "Protected dose which protects 50% of challenged mice from death owing to the Pasteurella multocida (59A006) infection", "conditions": "read-out: PD50"}, "Pasteurella multocida": {"tested_on": "Pasteurella multocida", "assay": "Minimum inhibitory concentration required to inhibit Pasteurella multocida 59A006 in vitro"}, "Mus musculus [2]": {"species": "Mus musculus", "assay": "Protected dose at which the test compound protects 50% of challenged mice from death owing to the Pasteurella multocida infection", "conditions": "read-out: PD50"}},
  "data": [
    {"smiles": "CC[C@H]1OC(=O)CC(O)[C@H](C)[C@@H](O[C@@H]2O[C@H](C)C[C@H](N(C)C)[C@H]2O)[C@@H](CCN2CCCCC2)C[C@@H](C)C(=O)/C=C/C(C)=C/[C@@H]1C", "note": "(some centres not stated)", "values": [
      {"measurement": "ED50", "setting": "Mus musculus [1]", "result": 150, "unit": "mg/kg"},
      {"measurement": "MIC", "setting": "Pasteurella multocida", "result": 0.2, "unit": "µg/mL"}
    ]},
    {"smiles": "CC[C@H]1OC(=O)CC(O)[C@H](C)[C@@H](O[C@@H]2O[C@H](C)C[C@H](N(C)C)[C@H]2O)[C@@H](CCN2CCCCCC2)C[C@@H](C)C(=O)/C=C/C(C)=C/[C@@H]1C", "note": "(some centres not stated)", "values": [
      {"measurement": "ED50", "setting": "Mus musculus [1]", "result": "> 200", "unit": "mg/kg"},
      {"measurement": "MIC", "setting": "Pasteurella multocida", "result": 0.1, "unit": "µg/mL"}
    ]},
    {"smiles": "CC[C@H]1OC(=O)CC(O)[C@H](C)[C@@H](O[C@@H]2O[C@H](C)C[C@H](N(C)C)[C@H]2O)[C@@H](CCNCC(O)CO)C[C@@H](C)C(=O)/C=C/C(C)=C/[C@@H]1C", "note": "(some centres not stated)", "values": [
      {"measurement": "ED50", "setting": "Mus musculus [1]", "result": 10, "unit": "mg/kg"},
      {"measurement": "MIC", "setting": "Pasteurella multocida", "result": 0.39, "unit": "µg/mL"}
    ]},
    {"smiles": "CC[C@H]1OC(=O)CC(O)[C@H](C)[C@@H](O[C@@H]2O[C@H](C)C[C@H](N(C)C)[C@H]2O)[C@@H](CCN(CCCN(C)C)C(=O)CN)C[C@@H](C)C(=O)/C=C/C(C)=C/[C@@H]1C", "note": "(some centres not stated)", "values": [
      {"measurement": "ED50", "setting": "Mus musculus [1]", "result": 4, "unit": "mg/kg"},
      {"measurement": "MIC", "setting": "Pasteurella multocida", "result": 0.78, "unit": "µg/mL"}
    ]},
    {"smiles": "CC[C@H]1OC(=O)CC(O)[C@H](C)[C@@H](O[C@@H]2O[C@H](C)C[C@H](N(C)C)[C@H]2O)[C@@H](CCNCC(C)(C)CO)C[C@@H](C)C(=O)/C=C/C(C)=C/[C@@H]1C", "note": "(some centres not stated)", "values": [
      {"measurement": "ED50", "setting": "Mus musculus [1]", "result": 26, "unit": "mg/kg"},
      {"measurement": "MIC", "setting": "Pasteurella multocida", "result": 0.05, "unit": "µg/mL"}
    ]},
    {"smiles": "CC[C@H]1OC(=O)CC(O)[C@H](C)[C@@H](O[C@@H]2O[C@H](C)C[C@H](N(C)C)[C@H]2O)[C@@H](CCN(CCO)CCO)C[C@@H](C)C(=O)/C=C/C(C)=C/[C@@H]1C", "note": "(some centres not stated)", "values": [
      {"measurement": "ED50", "setting": "Mus musculus [1]", "result": 41, "unit": "mg/kg"},
      {"measurement": "MIC", "setting": "Pasteurella multocida", "result": 0.2, "unit": "µg/mL"}
    ]},
    {"smiles": "CC[C@H]1OC(=O)CC(O)[C@H](C)[C@@H](O[C@@H]2O[C@H](C)C[C@H](N(C)C)[C@H]2O)[C@@H](CCN2CCCCCC2)C[C@@H](C)C(=O)/C=C/[C@]2(C)O[C@H]2[C@@H]1C", "note": "(some centres not stated)", "values": [
      {"measurement": "ED50", "setting": "Mus musculus [1]", "result": 150, "unit": "mg/kg"},
      {"measurement": "MIC", "setting": "Pasteurella multocida", "result": 0.2, "unit": "µg/mL"}
    ]},
    {"smiles": "CC[C@H]1OC(=O)CC(O)[C@H](C)[C@@H](O[C@@H]2O[C@H](C)C[C@H](N(C)C)[C@H]2O)[C@@H](CCN(C)C)C[C@@H](C)C(=O)/C=C/[C@]2(C)O[C@H]2[C@@H]1C", "note": "(some centres not stated)", "values": [
      {"measurement": "ED50", "setting": "Mus musculus [1]", "result": "> 150", "unit": "mg/kg"},
      {"measurement": "MIC", "setting": "Pasteurella multocida", "result": 0.39, "unit": "µg/mL"}
    ]},
    {"smiles": "CC[C@H]1OC(=O)CC(O)[C@H](C)[C@@H](O[C@@H]2O[C@H](C)C[C@H](N(C)C)[C@H]2O)[C@@H](CCN2CCCC2)C[C@@H](C)C(=O)/C=C/[C@]2(C)O[C@H]2[C@@H]1C", "note": "(some centres not stated)", "values": [
      {"measurement": "ED50", "setting": "Mus musculus [1]", "result": "> 150", "unit": "mg/kg"},
      {"measurement": "MIC", "setting": "Pasteurella multocida", "result": 0.78, "unit": "µg/mL"}
    ]},
    {"smiles": "CC[C@H]1OC(=O)C[C@@H](O)[C@H](C)[C@@H](O[C@@H]2O[C@H](C)[C@@H](O)[C@@H](N(C)C)[C@H]2O)[C@@H](CC=O)C[C@@H](C)C(=O)/C=C/C(C)=C/[C@@H]1CO[C@@H]1O[C@H](C)[C@@H](O)[C@@H](OC)[C@H]1OC", "values": [
      {"measurement": "ED50", "setting": "Mus musculus [2]", "result": 66, "unit": "mg/kg"},
      {"measurement": "MIC", "setting": "Pasteurella multocida", "result": 3.13, "unit": "µg/mL"}
    ]},
    {"smiles": "CC[C@H]1OC(=O)CC(O)[C@H](C)[C@@H](O[C@@H]2O[C@H](C)C[C@H](N(C)C)[C@H]2O)[C@@H](CCN(C)CCCN(C)C)C[C@@H](C)C(=O)/C=C/C(C)=C/[C@@H]1C", "note": "(some centres not stated)", "values": [
      {"measurement": "ED50", "setting": "Mus musculus [1]", "result": 26, "unit": "mg/kg"},
      {"measurement": "MIC", "setting": "Pasteurella multocida", "result": 0.1, "unit": "µg/mL"}
    ]},
    {"smiles": "CC[C@H]1OC(=O)CC(O)[C@H](C)[C@@H](O[C@@H]2O[C@H](C)C[C@H](N(C)C)[C@H]2O)[C@@H](CCN2CCN(C)CC2)C[C@@H](C)C(=O)/C=C/C(C)=C/[C@@H]1C", "note": "(some centres not stated)", "values": [
      {"measurement": "ED50", "setting": "Mus musculus [1]", "result": "> 150", "unit": "mg/kg"},
      {"measurement": "MIC", "setting": "Pasteurella multocida", "result": 0.39, "unit": "µg/mL"}
    ]},
    {"smiles": "CC[C@H]1OC(=O)CC(O)[C@H](C)[C@@H](O[C@@H]2O[C@H](C)C[C@H](N(C)C)[C@H]2O)[C@@H](CCN(C)C)C[C@@H](C)C(=O)/C=C/C(C)=C/[C@@H]1C", "note": "(some centres not stated)", "values": [
      {"measurement": "ED50", "setting": "Mus musculus [1]", "result": 150, "unit": "mg/kg"},
      {"measurement": "MIC", "setting": "Pasteurella multocida", "result": 0.39, "unit": "µg/mL"}
    ]},
    {"smiles": "CC[C@H]1OC(=O)CC(O)[C@H](C)[C@@H](O[C@@H]2O[C@H](C)C[C@H](N(C)C)[C@H]2O)[C@@H](CCN(CC)CC)C[C@@H](C)C(=O)/C=C/[C@]2(C)O[C@H]2[C@@H]1C", "note": "(some centres not stated)", "values": [
      {"measurement": "ED50", "setting": "Mus musculus [1]", "result": 123, "unit": "mg/kg"},
      {"measurement": "MIC", "setting": "Pasteurella multocida", "result": 0.78, "unit": "µg/mL"}
    ]},
    {"smiles": "CC[C@H]1OC(=O)CC(O)[C@H](C)[C@@H](O[C@@H]2O[C@H](C)C[C@H](N(C)C)[C@H]2O)[C@@H](CCNCCN(C)C)C[C@@H](C)C(=O)/C=C/C(C)=C/[C@@H]1C", "note": "(some centres not stated)", "values": [
      {"measurement": "ED50", "setting": "Mus musculus [1]", "result": 100, "unit": "mg/kg"},
      {"measurement": "MIC", "setting": "Pasteurella multocida", "result": 0.2, "unit": "µg/mL"}
    ]},
    {"smiles": "CC[C@H]1OC(=O)CC(O)[C@H](C)[C@@H](O[C@@H]2O[C@H](C)C[C@H](N(C)C)[C@H]2O)[C@@H](CCNC(C)(C)C)C[C@@H](C)C(=O)/C=C/C(C)=C/[C@@H]1C", "note": "(some centres not stated)", "values": [
      {"measurement": "ED50", "setting": "Mus musculus [1]", "result": 150, "unit": "mg/kg"},
      {"measurement": "MIC", "setting": "Pasteurella multocida", "result": 0.39, "unit": "µg/mL"}
    ]},
    {"smiles": "CC[C@H]1OC(=O)[C@H](C)[C@@H](O[C@H]2C[C@@](C)(OC)[C@@H](O)[C@H](C)O2)[C@H](C)[C@@H](O[C@@H]2O[C@H](C)C[C@H](N(C)C)[C@H]2O)[C@](C)(O)C[C@@H](C)CN(C)[C@H](C)[C@@H](O)[C@]1(C)O", "note": "[AZITHROMYCIN]", "values": [
      {"measurement": "ED50", "setting": "Mus musculus [2]", "result": 16, "unit": "mg/kg"},
      {"measurement": "MIC", "setting": "Pasteurella multocida", "result": 0.05, "unit": "µg/mL"}
    ]},
    {"smiles": "CO[C@@H]1[C@@H](O[C@@H]2O[C@H](C)[C@@H](O[C@H]3C[C@@](C)(O)[C@@H](OC(=O)CC(C)C)[C@H](C)O3)[C@H](N(C)C)[C@H]2O)[C@@H](CC=O)C[C@@H](C)C(=O)/C=C/[C@@H]2O[C@H]2C[C@@H](C)OC(=O)C[C@H]1OC(C)=O", "note": "[CARBOMYCIN A]", "values": [
      {"measurement": "ED50", "setting": "Mus musculus [1]", "result": "> 150", "unit": "mg/kg"},
      {"measurement": "MIC", "setting": "Pasteurella multocida", "result": 1.56, "unit": "µg/mL"}
    ]},
    {"smiles": "CC[C@H]1OC(=O)C[C@@H](O)[C@H](C)[C@@H](O[C@@H]2O[C@H](C)C[C@H](N(C)C)[C@H]2O)[C@@H](CC=O)C[C@@H](C)C(=O)/C=C/[C@]2(C)O[C@H]2[C@@H]1C", "note": "[ROSARAMICIN]", "values": [
      {"measurement": "ED50", "setting": "Mus musculus [1]", "result": 68, "unit": "mg/kg"},
      {"measurement": "MIC", "setting": "Pasteurella multocida", "result": 0.2, "unit": "µg/mL"}
    ]},
    {"smiles": "CC[C@H]1OC(=O)C[C@@H](O)[C@H](C)[C@@H](O[C@@H]2O[C@H](C)[C@@H](O)[C@H](N(C)C)[C@H]2O)[C@@H](CCN2C[C@H](C)C[C@H](C)C2)C[C@@H](C)C(=O)/C=C/C(C)=C/[C@@H]1CO[C@@H]1O[C@H](C)[C@@H](O)[C@@H](OC)[C@H]1OC", "note": "[TILMICOSIN]", "values": [
      {"measurement": "ED50", "setting": "Mus musculus [2]", "result": 99, "unit": "mg/kg"},
      {"measurement": "MIC", "setting": "Pasteurella multocida", "result": 1.56, "unit": "µg/mL"}
    ]},
    {"smiles": "CC[C@H]1OC(=O)C[C@@H](O)[C@H](C)[C@@H](O[C@@H]2O[C@H](C)[C@@H](O[C@H]3C[C@@](C)(O)[C@@H](O)[C@H](C)O3)[C@H](N(C)C)[C@H]2O)[C@@H](CC=O)C[C@@H](C)C(=O)/C=C/C(C)=C/[C@@H]1CO[C@@H]1O[C@H](C)[C@@H](O)[C@@H](OC)[C@H]1OC", "note": "[TYLOSIN]", "values": [
      {"measurement": "ED50", "setting": "Mus musculus [1]", "result": 86, "unit": "mg/kg"},
      {"measurement": "MIC", "setting": "Pasteurella multocida", "result": 25, "unit": "µg/mL"}
    ]}
  ]
}
